Laboratory results published in patent US9828344B2, “Inhibitors of the notch signaling pathway and secretion for use in medicine” (Leibniz-Institut für Altersforschung Fritz-Lipmann-Institut …, priority 2012, dated 2017).
pEC50: −log10 of the molar value.

System: NotchΔE-EGFP
Assay: cells
Assay type: cell-based
Excerpt: To identify novel regulatory factors involved in Notch trafficking/processing an image-based high content screen was set up. […] NotchΔE-EGFP is a direct substrate for γ-secretase at the PM, and under physiological conditions is proteolytically processed to NICD-EGFP that translocates into the nucleus (for scheme see FIG. 1b), resulting in a strong nuclear EGFP-staining in steady state^15 (FIG. 1d). […] Importantly, changes in subcellular localization of the reporter are amenable to quantitation by automated microscopy^15. Accordingly, reporter fluorescence was determined in the nucleus (nuc) and in a ring around the nucleus (enuc), and the ratio enuc/nuc was evaluated (schematized in FIG. 1c). Thereafter, the assay design was functionally validated. […] The assay also reliably detected trafficking defects in the secretory pathway. […] Taken together, the assay was validated for reliably detecting concentration and time dependent changes in trafficking and processing of the Notch reporter.
Cells were seeded in 96-well plates at a density of 5000 cells/well in 100 μl medium. The next day, 100 μl medium containing the respective test compounds was added. Cells were incubated for 16 h, fixed and processed for automated microscopy. For the putative gamma-secretase inhibitors the enuc intensity was divided by the DAPT control and for the trafficking inhibitors normalized percentage inhibition against DAPT/DMSO controls of log 2 transformed nuc/enuc ratios were calculated. Relative activity values were read into “R” (http://www.r-project.org/) and EC50 estimates were calculated using four-parameter log-logistic fit with the package “drc”^51.
Images were acquired on an ArrayScan VTi automated microscope (ThermoFisher) and numerical data were extracted with the Compartmental Analysis BioApplication of the bundled software suite. Compound screening raw data were collected at the FMP and data transformation was performed according to standard procedures (ref 17 and supp. Refs 6-7).

CC1=C(C(=O)OC2CCCCC2)C(c2ccc([N+](=O)[O-])cc2)C2=C(CC(C)(C)CC2=O)N1 (centres unmarked) [FLI-06, Cyclohexyl 4-(4′-nitrophenyl)-2,7,7-trimethyl-5-oxo-1,4,5,6,7,8-hexahydroquinoline-3-carboxylate]
activity in NotchΔE-EGFP cells (enuc/nuc ratios) (SAR and prior-art comparison, FIG. 5a/5b): equally active as the initial screening hit | pEC50 (assay not given, read-out: EC50 as secretion inhibitor): 5.64
